Data: ChEMBL document CHEMBL1121621, “Synthesis and antiarrhythmic activity of alpha, alpha-bis[(dialkylamino)alkyl]phenylacetamides” (J Med Chem, 1980)
The source made the active and inactive calls. The calls are words filed in the database; no cut-off is given here.

How the values were obtained:
[1] = system: Canis familiaris; assay: Minimum effective dose evaluated in mixed-breed or Beagle dogs after intravenous administration; assay type: functional; conditions: Canis lupus familiaris, read-out: MED
[2] = system: Canis familiaris; assay: Compound was evaluated for maximum reduction of ectopic beats after oral administration at a dose 25 mg/kg to dog.; assay type: functional, Canis lupus familiaris, Heart
[3] = system: Canis familiaris; assay: Compound was evaluated for onset of action after oral administration at a dose 12 mg/kg to dog.; assay type: functional, Canis lupus familiaris
[4] = system: Canis familiaris; assay: Compound was evaluated for maximum reduction of ectopic beats after oral administration at a dose 12 mg/kg to dog.; assay type: functional, Canis lupus familiaris, Heart
[5] = system: Canis familiaris; assay: Compound was evaluated for duration of action after oral administration at a dose 12 mg/kg to dog.; assay type: functional, Canis lupus familiaris
[6] = system: Canis familiaris; assay: Compound was evaluated for onset of action after oral administration at a dose 25 mg/kg to dog.; assay type: functional, Canis lupus familiaris
[7] = system: Canis familiaris; assay: Activity duration index was evaluated in mixed-breed or Beagle dogs after intravenous administration.; assay type: functional, Canis lupus familiaris
[8] = system: Canis familiaris; assay: Compound was evaluated for duration of action after oral administration at a dose 15 mg/kg to dog.; assay type: functional, Canis lupus familiaris
[9] = system: Canis familiaris; assay: Compound was evaluated for maximum reduction of ectopic beats after oral administration at a dose 15 mg/kg to dog.; assay type: functional, Canis lupus familiaris, Heart
[10] = system: Canis familiaris; assay: Compound was evaluated for duration of action after oral administration at a dose 25 mg/kg to dog.; assay type: functional, Canis lupus familiaris
[11] = system: Canis familiaris; assay: Antiarrhythmic activity was evaluated in mixed-breed or Beagle dogs after intravenous administration.; assay type: functional, Canis lupus familiaris, Heart
[12] = system: Canis familiaris; assay: Compound was evaluated for onset of action after oral administration at a dose 15 mg/kg to dog.; assay type: functional, Canis lupus familiaris
[13] = Therapeutic ratio in mixed-breed or Beagle dogs after intravenous administration of the compound.; assay type: ADME, Canis lupus familiaris; conditions: dog, in vivo, read-out: TR
[14] = system: Canis familiaris; assay: Compound was evaluated for maximum reduction of ectopic beats after oral administration at a dose 25 mg/kg to dog; IA means inactive; assay type: functional, organism-based; set-up: dose 25 mg/kg; conditions: Canis lupus familiaris; Heart
[15] = system: Canis familiaris; assay: Minimum effective dose was evaluated in mixed-breed or Beagle dogs after intravenous administration of the compound; assay type: functional; conditions: Canis lupus familiaris, read-out: MED
[16] = system: Canis familiaris; assay: Compound was evaluated for maximum reduction of ectopic beats after oral administration at a dose 25 mg/kg to dog; L means lethal; assay type: functional, organism-based; set-up: dose 25 mg/kg; conditions: Canis lupus familiaris; Heart
[17] = Therapeutic ratio was evaluated in mixed-breed or Beagle dogs after intravenous administration of the compound; assay type: ADME, Canis lupus familiaris; conditions: dog, in vivo, read-out: TR
[18] = system: Canis familiaris; assay: Compound was evaluated for maximum reduction of ectopic beats after oral administration at a dose 15 mg/kg to dog; IA means inactive; assay type: functional, organism-based; set-up: dose 15 mg/kg; conditions: Canis lupus familiaris; Heart

Compound	minimal effective dose [1]	Onset of action [6]	ADI [7]	Duration [10]	AR [11]	selectivity ratio [13]	also measured
CC(C)N(CCC(CCN1CCCCC1)(C(N)=O)c1ccccc1Cl)C(C)C (stereo unspecified) [DISOBUTAMIDE]	3.3 mg/kg	80 min	1.76	>360 min	8.4	8.8	Max reduction [2]: 100%; Onset of action [3]: 135 min; Reduction [4]: 49%; Duration [5]: 75 min; Duration [8]: 210 min; Max reduction [9]: 90%; Onset of action [12]: 85 min
CC(C)N(CCC(CCN1CC2CCC(CC2)C1)(C(N)=O)c1ccccc1)C(C)C (stereo unspecified)	2.5 mg/kg		0.96		7	12.5	Reduction [14]: inactive
CC(C)N(CCC(CCN1CCCCC1)(C(N)=O)c1ccccc1F)C(C)C (stereo unspecified)	1.8 mg/kg	45 min	1.47	300 min	6	18	Reduction [2]: 100%; Onset of action [3]: 90 min; Reduction [4]: 67%; Duration [5]: 90 min
CC(C)N(CCC(CCN1CCOCC1)(C(N)=O)c1ccccc1Cl)C(C)C (stereo unspecified)			0.49		3.4		minimal effective dose [15]: 11.7 mg/kg
CC(C)N(CCC(CCC1CCCCC1)(C(N)=O)c1ccccc1Cl)C(C)C (stereo unspecified)	3.5 mg/kg		3.07				Reduction [16]: Lethal; selectivity ratio [17]: 6.1
CC(C)N(CCC(CCN(C(C)C)C(C)C)(C(N)=O)c1ccc(C(C)(C)C)cc1)C(C)C	2 mg/kg		1.35				selectivity ratio [17]: 4.9
CC(C)N(CCC(C(N)=O)(c1ccccc1)c1ccccn1)C(C)C (stereo unspecified) [DISOPYRAMIDE]	6.6 mg/kg	172 min	0.5	120 min	4.1	6.6	Reduction [2]: 79%; Reduction [18]: inactive
